Measurements reported in patent publication US8933230B2, “Phosphorus-containing group-substituted quinoline, its preparation process, medical composition containing the compounds and application” (priority 2011, dated 2015).

Legend:
Test in all cases: KinomeScan kinase panel
Assay type in all cases: binding
AURKA = target: T1, AURKA (Homo sapiens, UniProt O14965)
T1 construct: purchased DiscoveRx Corporation (KinomeScan)
Outline: (§1)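 Read-out is inhibition at one dose. Compound concentration was 1000 nM, run through the 442-kinase KinomeScan platform.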

AXL = target: T2, AXL (Homo sapiens, UniProt P30530)
T2 construct: purchased DiscoveRx Corporation (KinomeScan)
Outline: as §1

BRAF(V600E) = target: T3, BRAF(V600E) (Homo sapiens, UniProt P15056, V600E)
T3 construct: purchased DiscoveRx Corporation (KinomeScan)
T3 sequence (P15056 whole entry V600E): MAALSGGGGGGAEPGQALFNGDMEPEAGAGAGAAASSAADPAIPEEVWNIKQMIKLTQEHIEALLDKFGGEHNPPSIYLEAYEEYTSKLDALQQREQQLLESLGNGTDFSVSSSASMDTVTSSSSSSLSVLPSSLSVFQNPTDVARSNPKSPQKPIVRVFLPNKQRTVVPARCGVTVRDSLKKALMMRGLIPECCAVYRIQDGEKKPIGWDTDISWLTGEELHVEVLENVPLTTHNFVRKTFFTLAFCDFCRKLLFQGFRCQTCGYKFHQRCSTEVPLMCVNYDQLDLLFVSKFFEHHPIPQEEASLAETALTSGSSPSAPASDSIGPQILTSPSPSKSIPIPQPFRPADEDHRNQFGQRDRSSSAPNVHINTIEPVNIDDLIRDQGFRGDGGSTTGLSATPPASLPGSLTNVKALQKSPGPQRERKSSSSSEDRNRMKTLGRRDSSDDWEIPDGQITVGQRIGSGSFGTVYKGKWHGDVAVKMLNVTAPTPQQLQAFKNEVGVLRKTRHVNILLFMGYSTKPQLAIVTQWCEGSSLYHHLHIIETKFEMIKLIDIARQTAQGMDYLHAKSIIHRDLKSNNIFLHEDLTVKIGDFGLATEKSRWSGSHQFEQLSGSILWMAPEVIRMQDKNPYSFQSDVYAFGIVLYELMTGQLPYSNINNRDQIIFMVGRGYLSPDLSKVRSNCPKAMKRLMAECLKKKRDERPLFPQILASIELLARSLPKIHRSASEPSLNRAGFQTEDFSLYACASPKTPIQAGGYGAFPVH
Outline: as §1

CDK7 = target: T4, CDK7 (Homo sapiens, UniProt P50613)
T4 construct: purchased DiscoveRx Corporation (KinomeScan)
T4 sequence (P50613 whole entry): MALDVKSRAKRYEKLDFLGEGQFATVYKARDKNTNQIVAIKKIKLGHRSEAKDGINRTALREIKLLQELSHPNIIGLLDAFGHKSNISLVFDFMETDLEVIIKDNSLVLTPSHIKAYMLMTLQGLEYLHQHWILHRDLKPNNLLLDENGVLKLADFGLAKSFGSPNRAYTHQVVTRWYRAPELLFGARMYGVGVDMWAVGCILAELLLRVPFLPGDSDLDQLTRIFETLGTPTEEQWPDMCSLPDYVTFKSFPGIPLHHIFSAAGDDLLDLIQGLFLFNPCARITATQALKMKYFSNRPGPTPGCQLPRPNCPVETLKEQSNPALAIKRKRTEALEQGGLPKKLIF
Outline: as §1

CDKL3 = target: T5, CDKL3 (Homo sapiens, UniProt Q8IVW4)
T5 construct: purchased DiscoveRx Corporation (KinomeScan)
Outline: as §1

CDKL5 = target: T6, CDKL5 (Homo sapiens, UniProt O76039)
T6 construct: purchased DiscoveRx Corporation (KinomeScan)
T6 sequence (O76039 whole entry): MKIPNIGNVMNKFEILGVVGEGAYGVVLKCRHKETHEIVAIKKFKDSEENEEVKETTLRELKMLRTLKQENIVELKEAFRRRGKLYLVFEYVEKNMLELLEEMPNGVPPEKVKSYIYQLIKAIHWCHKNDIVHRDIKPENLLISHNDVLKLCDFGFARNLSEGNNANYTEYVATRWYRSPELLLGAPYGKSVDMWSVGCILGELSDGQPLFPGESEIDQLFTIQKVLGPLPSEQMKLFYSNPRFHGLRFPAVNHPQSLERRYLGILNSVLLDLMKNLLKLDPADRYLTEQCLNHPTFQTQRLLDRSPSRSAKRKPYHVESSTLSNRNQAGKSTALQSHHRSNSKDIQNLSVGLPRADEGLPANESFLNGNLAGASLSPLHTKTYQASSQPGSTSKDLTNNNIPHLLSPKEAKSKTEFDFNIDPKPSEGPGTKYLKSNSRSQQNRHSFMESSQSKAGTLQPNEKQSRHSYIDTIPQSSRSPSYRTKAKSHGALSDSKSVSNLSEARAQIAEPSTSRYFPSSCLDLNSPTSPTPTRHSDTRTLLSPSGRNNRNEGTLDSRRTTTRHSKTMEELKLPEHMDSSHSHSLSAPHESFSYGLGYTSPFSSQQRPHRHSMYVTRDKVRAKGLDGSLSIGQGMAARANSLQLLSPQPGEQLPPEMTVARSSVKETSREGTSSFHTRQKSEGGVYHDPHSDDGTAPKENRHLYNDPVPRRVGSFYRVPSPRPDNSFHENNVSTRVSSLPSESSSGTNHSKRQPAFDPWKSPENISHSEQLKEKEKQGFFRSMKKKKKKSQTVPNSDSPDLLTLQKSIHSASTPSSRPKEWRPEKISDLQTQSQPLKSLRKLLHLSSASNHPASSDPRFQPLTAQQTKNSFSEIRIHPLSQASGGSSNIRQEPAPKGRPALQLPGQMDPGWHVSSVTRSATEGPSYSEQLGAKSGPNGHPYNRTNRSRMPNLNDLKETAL
Outline: as §1

CIT = target: T7, CIT (Homo sapiens, UniProt O14578)
T7 construct: purchased DiscoveRx Corporation (KinomeScan)
Outline: as §1

CLK3 = target: T8, CLK3 (Homo sapiens, UniProt P49761)
T8 construct: purchased DiscoveRx Corporation (KinomeScan)
Outline: as §1

CSNK2A2 = target: T9, CSNK2A2 (Homo sapiens, UniProt P19784)
T9 construct: purchased DiscoveRx Corporation (KinomeScan)
Outline: as §1

DYRK2 = target: T10, DYRK2 (Homo sapiens, UniProt Q92630)
T10 construct: purchased DiscoveRx Corporation (KinomeScan)
Outline: as §1

EGFR(L858R,T790M) = target: T11, EGFR(L858R,T790M) (Homo sapiens, UniProt P00533, L858R/T790M)
T11 construct: purchased DiscoveRx Corporation (KinomeScan)
Outline: as §1

EPHA7 = target: T12, EPHA7 (Homo sapiens, UniProt Q15375)
T12 construct: purchased DiscoveRx Corporation (KinomeScan)
Outline: as §1

FGR = target: T13, FGR (Homo sapiens, UniProt P09769)
T13 construct: purchased DiscoveRx Corporation (KinomeScan)
Outline: as §1

FLT3(D835Y) = target: T14, FLT3(D835Y) (Homo sapiens, UniProt P36888, D835Y)
T14 construct: purchased DiscoveRx Corporation (KinomeScan)
Outline: as §1

FLT3(R834Q) = target: T15, FLT3(R834Q) (Homo sapiens, UniProt P36888, R834Q)
T15 construct: purchased DiscoveRx Corporation (KinomeScan)
Outline: as §1

IKK-epsilon = target: T16, IKK-epsilon (Homo sapiens, UniProt Q14164)
T16 construct: purchased DiscoveRx Corporation (KinomeScan)
Outline: as §1

LYN = target: T17, LYN (Homo sapiens, UniProt P07948)
T17 construct: purchased DiscoveRx Corporation (KinomeScan)
T17 sequence (P07948 whole entry): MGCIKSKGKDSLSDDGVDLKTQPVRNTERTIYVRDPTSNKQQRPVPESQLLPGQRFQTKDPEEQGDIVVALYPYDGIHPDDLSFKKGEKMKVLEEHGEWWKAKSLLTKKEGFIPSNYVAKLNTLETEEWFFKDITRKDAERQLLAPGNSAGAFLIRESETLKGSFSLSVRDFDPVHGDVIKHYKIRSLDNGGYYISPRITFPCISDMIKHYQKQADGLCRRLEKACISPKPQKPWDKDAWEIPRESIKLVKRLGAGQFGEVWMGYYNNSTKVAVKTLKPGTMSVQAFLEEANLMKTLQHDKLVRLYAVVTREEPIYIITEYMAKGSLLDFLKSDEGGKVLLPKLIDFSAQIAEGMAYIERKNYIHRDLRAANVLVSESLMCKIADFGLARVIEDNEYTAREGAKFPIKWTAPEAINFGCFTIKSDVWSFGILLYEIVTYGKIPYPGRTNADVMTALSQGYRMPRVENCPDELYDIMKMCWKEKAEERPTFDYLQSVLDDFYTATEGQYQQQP
Outline: as §1

LZK = target: T18, LZK (Homo sapiens, UniProt O43283)
T18 construct: purchased DiscoveRx Corporation (KinomeScan)
Outline: as §1

MAP3K4 = target: T19, MAP3K4 (Homo sapiens, UniProt Q9Y6R4)
T19 construct: purchased DiscoveRx Corporation (KinomeScan)
Outline: as §1

MAP4K3 = target: T20, MAP4K3 (Homo sapiens, UniProt Q8IVH8)
T20 construct: purchased DiscoveRx Corporation (KinomeScan)
Outline: as §1

MRCKA = target: T21, MRCKA (Homo sapiens, UniProt Q5VT25)
T21 construct: purchased DiscoveRx Corporation (KinomeScan)
Outline: as §1

NEK2 = target: T22, NEK2 (Homo sapiens, UniProt P51955)
T22 construct: purchased DiscoveRx Corporation (KinomeScan)
Outline: as §1

NEK3 = target: T23, NEK3 (Homo sapiens, UniProt P51956)
T23 construct: purchased DiscoveRx Corporation (KinomeScan panel)
T23 sequence (P51956 whole entry): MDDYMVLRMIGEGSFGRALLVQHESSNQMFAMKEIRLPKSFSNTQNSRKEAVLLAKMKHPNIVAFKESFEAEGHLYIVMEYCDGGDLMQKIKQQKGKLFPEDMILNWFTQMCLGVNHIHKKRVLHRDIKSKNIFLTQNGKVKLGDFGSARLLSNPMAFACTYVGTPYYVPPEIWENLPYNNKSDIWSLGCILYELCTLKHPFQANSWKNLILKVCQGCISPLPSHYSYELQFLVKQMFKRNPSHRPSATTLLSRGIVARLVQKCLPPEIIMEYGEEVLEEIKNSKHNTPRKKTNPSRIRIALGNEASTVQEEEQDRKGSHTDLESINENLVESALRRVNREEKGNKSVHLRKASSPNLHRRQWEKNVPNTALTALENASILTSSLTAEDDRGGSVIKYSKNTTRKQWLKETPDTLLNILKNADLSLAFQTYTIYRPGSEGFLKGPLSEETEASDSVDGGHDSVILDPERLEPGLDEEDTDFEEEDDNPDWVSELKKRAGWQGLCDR
Outline: as §1

NEK4 = target: T24, NEK4 (Homo sapiens, UniProt P51957)
T24 construct: purchased DiscoveRx Corporation (KinomeScan panel)
T24 sequence (P51957 whole entry): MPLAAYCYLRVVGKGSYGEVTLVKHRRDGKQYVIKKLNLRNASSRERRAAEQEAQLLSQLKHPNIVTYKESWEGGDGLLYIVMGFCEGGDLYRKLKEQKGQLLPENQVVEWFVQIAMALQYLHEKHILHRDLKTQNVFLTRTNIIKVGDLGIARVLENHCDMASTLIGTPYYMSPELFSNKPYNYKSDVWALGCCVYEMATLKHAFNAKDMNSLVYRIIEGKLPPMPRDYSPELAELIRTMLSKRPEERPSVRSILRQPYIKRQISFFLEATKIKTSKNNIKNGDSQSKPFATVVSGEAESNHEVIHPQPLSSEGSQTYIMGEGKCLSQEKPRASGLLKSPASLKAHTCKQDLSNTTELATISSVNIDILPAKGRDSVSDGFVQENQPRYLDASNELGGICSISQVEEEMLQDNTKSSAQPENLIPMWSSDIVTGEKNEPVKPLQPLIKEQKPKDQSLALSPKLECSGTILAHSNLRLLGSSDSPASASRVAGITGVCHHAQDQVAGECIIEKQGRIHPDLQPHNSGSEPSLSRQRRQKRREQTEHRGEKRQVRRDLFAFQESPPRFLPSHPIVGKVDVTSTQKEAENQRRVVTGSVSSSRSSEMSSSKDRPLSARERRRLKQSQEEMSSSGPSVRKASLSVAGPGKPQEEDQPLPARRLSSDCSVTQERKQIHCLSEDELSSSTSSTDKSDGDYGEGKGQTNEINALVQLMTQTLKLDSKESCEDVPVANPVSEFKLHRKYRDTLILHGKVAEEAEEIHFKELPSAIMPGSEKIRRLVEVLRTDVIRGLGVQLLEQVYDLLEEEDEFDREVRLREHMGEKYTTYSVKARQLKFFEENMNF
Outline: as §1

PAKC-beta = target: T25, PAKC-beta (Homo sapiens, UniProt P22694)
T25 construct: purchased DiscoveRx Corporation (KinomeScan)
Outline: as §1

PFTK = target: T26, PFTK (Homo sapiens, UniProt O94921)
T26 construct: purchased DiscoveRx Corporation (KinomeScan)
Outline: as §1

PIK3CA(18DDL) = target: T27, PIK3CA(18DDL) (Homo sapiens, UniProt P42336, I800L)
T27 construct: purchased DiscoveRx Corporation (KinomeScan)
Outline: as §1

PIP5K1C = target: T28, PIP5K1C (Homo sapiens, UniProt O60331)
T28 construct: purchased DiscoveRx Corporation (KinomeScan)
Outline: as §1

PRKG2 = target: T29, PRKG2 (Homo sapiens, UniProt Q13237)
T29 construct: purchased DiscoveRx Corporation (KinomeScan)
Outline: as §1

[1] = target: T30, RPS6KA4(kin.Dom.1-N-termimal) (Homo sapiens, UniProt O75676)
T30 construct: kin.Dom.1; purchased DiscoveRx Corporation
T30 sequence (O75676 33-301 limits assumed): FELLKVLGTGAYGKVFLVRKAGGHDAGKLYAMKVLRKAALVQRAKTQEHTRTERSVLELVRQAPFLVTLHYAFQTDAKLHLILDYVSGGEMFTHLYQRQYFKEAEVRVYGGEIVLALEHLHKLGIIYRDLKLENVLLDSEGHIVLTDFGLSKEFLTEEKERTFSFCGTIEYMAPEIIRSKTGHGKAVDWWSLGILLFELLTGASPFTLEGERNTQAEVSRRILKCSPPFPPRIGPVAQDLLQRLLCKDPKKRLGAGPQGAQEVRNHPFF
Outline: as §1

[2] = target: T31, RSK4(Kin.Dom.2-C-terminal) (Homo sapiens, UniProt Q9UK32)
T31 construct: Kin.Dom.2; purchased DiscoveRx Corporation (KinomeScan)
Outline: as §1

SYK = target: T32, SYK (Homo sapiens, UniProt P43405)
T32 construct: purchased DiscoveRx Corporation (KinomeScan)
Outline: as §1

TGFBR2 = target: T33, TGFBR2 (Homo sapiens, UniProt P37173)
T33 construct: purchased DiscoveRx Corporation (KinomeScan)
Outline: as §1

TNNI3K = target: T34, TNNI3K (Homo sapiens, UniProt Q59H18)
T34 construct: purchased DiscoveRx Corporation (KinomeScan)
T34 sequence (Q59H18 whole entry): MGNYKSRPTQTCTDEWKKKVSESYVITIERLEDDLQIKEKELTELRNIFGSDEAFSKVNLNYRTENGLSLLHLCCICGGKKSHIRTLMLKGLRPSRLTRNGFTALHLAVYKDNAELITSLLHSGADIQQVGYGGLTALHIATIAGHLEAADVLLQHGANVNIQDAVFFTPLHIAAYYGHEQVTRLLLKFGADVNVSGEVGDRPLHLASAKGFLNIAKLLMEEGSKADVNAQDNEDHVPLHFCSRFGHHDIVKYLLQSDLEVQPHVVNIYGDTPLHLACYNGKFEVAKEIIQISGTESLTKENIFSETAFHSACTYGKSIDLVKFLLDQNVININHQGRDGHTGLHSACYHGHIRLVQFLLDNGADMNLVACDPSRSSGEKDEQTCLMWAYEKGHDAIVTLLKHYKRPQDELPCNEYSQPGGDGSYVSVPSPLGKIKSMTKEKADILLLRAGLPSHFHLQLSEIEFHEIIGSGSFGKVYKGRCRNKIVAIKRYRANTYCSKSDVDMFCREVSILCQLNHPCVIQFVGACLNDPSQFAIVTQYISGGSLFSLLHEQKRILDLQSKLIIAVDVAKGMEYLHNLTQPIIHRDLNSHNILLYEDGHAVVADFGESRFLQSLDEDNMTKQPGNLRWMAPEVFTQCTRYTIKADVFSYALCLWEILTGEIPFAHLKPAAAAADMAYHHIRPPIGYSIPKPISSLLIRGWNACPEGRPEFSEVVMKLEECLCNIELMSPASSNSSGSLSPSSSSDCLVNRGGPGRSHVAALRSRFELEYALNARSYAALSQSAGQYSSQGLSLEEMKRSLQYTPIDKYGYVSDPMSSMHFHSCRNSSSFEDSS
Outline: as §1

[3] = target: T35, TYK2(JH1domain-pseudokinase) (Homo sapiens, UniProt P29597)
T35 construct: pseudokinase; purchased DiscoveRx Corporation (KinomeScan service)
Outline: as §1

CCOP(=O)(CN1CCC(COc2cc3nccc(Oc4ccc(NC(=O)C5(C(=O)Nc6ccc(F)cc6)CC5)cc4F)c3cc2OC)CC1)OCC [Example 10, N1-[4-[[7-[[1-(diethoxyphosphorylmethyl)-4-piperidinyl]methoxyl]-6-methoxyl-4-quinolyl]oxyl]-3-fluorophenyl]-N1′-(4-fluorophenyl)cyclopropane-1,1-dicarboxamide]
% Ctrl@1000 nM (AURKA): 100 % Ctrl | % Ctrl@1000 nM (AXL): 8 % Ctrl | % Ctrl@1000 nM (BRAF(V600E)): 100 % Ctrl | % Ctrl@1000 nM (CDK7): 15 % Ctrl | % Ctrl@1000 nM (CDKL3): 100 % Ctrl | % Ctrl@1000 nM (CDKL5): 100 % Ctrl | % Ctrl@1000 nM (CIT): 100 % Ctrl | % Ctrl@1000 nM (CLK3): 100 % Ctrl | % Ctrl@1000 nM (CSNK2A2): 100 % Ctrl | % Ctrl@1000 nM (DYRK2): 100 % Ctrl | % Ctrl@1000 nM (EGFR(L858R,T790M)): 100 % Ctrl | % Ctrl@1000 nM (EPHA7): 0.8 % Ctrl | % Ctrl@1000 nM (FGR): 35 % Ctrl | % Ctrl@1000 nM (FLT3(D835Y)): 2.4 % Ctrl | % Ctrl@1000 nM (FLT3(R834Q)): 16 % Ctrl | % Ctrl@1000 nM (IKK-epsilon): 94 % Ctrl | % Ctrl@1000 nM (LYN): 18 % Ctrl | % Ctrl@1000 nM (LZK): 47 % Ctrl | % Ctrl@1000 nM (MAP3K4): 100 % Ctrl | % Ctrl@1000 nM (MAP4K3): 20 % Ctrl | % Ctrl@1000 nM (MRCKA): 100 % Ctrl | % Ctrl@1000 nM (NEK2): 100 % Ctrl | % Ctrl@1000 nM (NEK3): 58 % Ctrl | % Ctrl@1000 nM (NEK4): 100 % Ctrl | % Ctrl@1000 nM (PAKC-beta): 100 % Ctrl | % Ctrl@1000 nM (PFTK): 100 % Ctrl | % Ctrl@1000 nM (PIK3CA(18DDL)): 100 % Ctrl | % Ctrl@1000 nM (PIP5K1C): 100 % Ctrl | % Ctrl@1000 nM (PRKG2): 100 % Ctrl | % Ctrl@1000 nM [1]: 76 % Ctrl | % Ctrl@1000 nM [2]: 91 % Ctrl | % Ctrl@1000 nM (SYK): 58 % Ctrl | % Ctrl@1000 nM (TGFBR2): 100 % Ctrl | % Ctrl@1000 nM (TNNI3K): 94 % Ctrl | % Ctrl@1000 nM [3]: 100 % Ctrl
